Assay results as given in US20200268705A1, “CABAZITAXEL COMPOSITION FOR INJECTION AND PREPARATION METHOD THEREFOR” (BIKA BIOTECHNOLOGY (GUANGZHOU) CO., LTD., priority 2018, published 2020).

Tests used:
[1] = Solubility of cabazitaxel in 40% SBE-β-CD aqueous solution; assay type: physicochemical; settings: found by the present inventors
Source text: Cyclodextrin, a pharmaceutical excipient, has a hollow hydrophobic, stereoscopic chiral inner cavity; due to its structural characteristic of “inner hydrophobic, external hydrophilic”, it can encapsulate a variety of small organic molecules (substrates) having suitable space size to form a noncovalent host-guest complex (inclusion complex). Its most significant pharmaceutical function is to increase the water solubility of poorly soluble drugs and improve the stability of drugs. For example, the invention application No. CA2900508A1 (US20150325321A1) by Valery Alakhov et al. disclosed a composition comprising cabazitaxel and suifobutyl ether beta cyclodextrin (SBF-β-CD) in a weight ratio of 1:30 to 1:1000. […] Even if it can reach such concentration, it is difficult to prepare a cabazitaxel injection that meets the concentration specifications of commercial preparations.

[2] = Solubility of cabazitaxel in PEG300/SBE-β-CD/PVPK12/water solution system with additives; assay type: physicochemical; settings: 700 mg/ml PEG300, 290 mg/ml SBE-β-CD, 80 mg/ml PVPK12, water, nitrogen
Source text: In view of various defects of the prior art, the inventor of the present application breaks through the prejudice of the prior art, conducts reverse experiments on existing knowledge, reduces the amount of cyclodextrin and abandons the use of ethanol having strong stimulation as a solvent and Tween 80 having side effects.

[3] = cited from earlier work

In the case of “(1S,2S,3R,4S,7R,9S,10S,12R,15S)-4-acetyloxy-15-{[(2R,3S)-3-{[(tertbutoxy)carbonylamino]}-2-hydroxy-3-phenylpropanoyl]oxy}-1-hydroxy-9, 12-dimethoxy-10,14,17,17-tetramethyl-11-oxo-6-oxatetracyclo[11.3.1.0^3:10.0^4:7]heptadec-13-ene-2-yl benzoate [cabazitaxel]”, the solubility of cabazitaxel [1] is listed as “about 1 mg/mL”, the solubility of cabazitaxel [2] is listed as ≥ 40 mg/mL and the “stability under alkaline conditions” value ([3]; alkaline conditions) is listed as “unstable under alkaline conditions”. The solubility in ethanol ([3]; ethanol) was “soluble in ethanol” and the solubility in water ([3]; water) was “almost insoluble in water”.
